What all share (assay type): cell-based
The test system of data set [1] is HIV-1 provirus in U1 cells. In words: U1 activation (latency) assay, p24 ELISA. As for the experimental part:
(§1) U1 activation assay. U1 cells obtained from the AIDS Research and Reference Reagent Program were maintained under standard culture conditions in RPMI 1640 supplemented with 10% fetal bovine serum (heat inactivated), 2 mM L-glutamine, 100U/mL penicillin and 100 μg/mL streptomycin. U1 cells contain an integrated copy of a phorbol ester inducible HIV-1 provirus and addition of phytohemagglutinin (PHA) to the cell culture was used to induce virus production. On the day of the assay, the U1 cells were activated with PHA and 250,000 cells were plated in 96-well plates. Test compounds were diluted in media and applied to the cells at final concentrations from 1 to 10,000 nM. Cultures were incubated for 3 days and supernatants harvested. Cell-free virus production was measured by p24 ELISA on culture supernatant. Compound toxicity was determined by MTT cell-viability assay in parallel assays.
A general note: An ELISA detects its analyte on a solid surface through an enzyme-linked reagent.

A short description of data set [2]: MTT cell viability run in parallel with the Tat-hybrid assay. The following applies: human, Tat-hybrid reporter cell lines (HeLa); for CC50 at 48 h: Table 5, read-out: Tat hybrid TC50; for EC50 at 48 h: Table 6, second 'EC50' entry of the cell, values D/E. As for the experimental part: (§2) Cells were counted and plated into white 384-well or 96-well cell-culture treated assay plates and compounds were added. After 48 hours, the cells were prepared for luminescence assays that were performed on a plate reader (Tecan Evolution or MD Analyst). The cytotoxicity of each compound was determined in parallel via MTT-based cell viability assays.
(§3) Tat hybrid reporter assay. […] Previously characterized thienopyridines and diaminoacridine were used as controls. Cells were counted and plated into white 384-well cell-culture treated assay plates and compounds were added. After 48 hours, the cells were prepared for lumincescence assays that were performed on a plate reader (Tecan Evolution or MD Analyst). The cytotoxicity of each compound was determined in parallel via MTT-based cell viability assays. […]

The nature of data set [3]: MTT cell viability in parallel with the U1 assay. The following applies: human, U1 cells, read-out: U1 TC50. As for the experimental part:
as §1

Data set [4] relates to Tat-hybrid reporter cell lines (HeLa). Put plainly: MTT cell viability run in parallel with the Tat-hybrid assay. To be noted: Table 6; at 50,000 nM. As for the experimental part: as §2, §3
[5] abbreviates: Human immunodeficiency virus 1, Table 5, read-out: U1 IC50.
Where [6] appears, read: Human immunodeficiency virus 1, read-out: U1 cell IC50 (nM).
Where [7] appears, read: Human immunodeficiency virus 1, Table 2, read-out: U1 cell IC50.

These results are taken from US10154992B2, “Compounds and methods for treating HIV infection” (THE REGENTS OF THE UNIVERSITY OF CALIFORNIA, priority 2016, dated 2018).

Where two headings read alike, the source gives them in different places.

Usually IC50 stands for the concentration that inhibits the measured activity by half. A word on the EC50: it is the midpoint of the concentration-response curve. Low readings indicate greater potency, high ones weaker potency.

`CCOc1ccc(-c2cncc3sc(C(N)=O)cc23)cc1`: the 50% inhibitory concentration (IC50) in data set [1] (setting [5]) is less than 100 nM. In data set [2], the CC50 at 48 h was less than 40 µM. Besides, in data set [3] (Table 5), the CC50 at 3 days was less than 40 µM.
In the case of `NC(=O)c1cc2c(-c3ccc4c(c3)OCCO4)cncc2s1`, the IC50 in data set [1] (setting [5]) was less than 100 nM. In data set [2], the CC50 at 48 h was less than 40 µM. In data set [3] (Table 5), the CC50 at 3 days was less than 40 µM.
As for `NC(=O)c1sc2cncc(N3CCc4ccccc4C3)c2c1N`, in data set [1] (setting [5]), the 50% inhibitory concentration (IC50) was less than 100 nM. Further, the CC50 at 48 h in data set [2] is less than 40 µM. In data set [3] (Table 5), the CC50 at 3 days is less than 40 µM.
For the compound `NC(=O)c1sc2cncc(-c3cccc4ccccc34)c2c1N`, in data set [1] (setting [5]), the concentration for half-maximal inhibition (IC50) is less than 100 nM. Moreover, the CC50 at 48 h in data set [2] was greater than 40 µM. The CC50 at 3 days in data set [3] (Table 5) was less than 40 µM.
For `COc1cc2c(cc1OC)CN(c1cncc3sc(C(N)=O)c(N)c13)CC2` the same measures were less than 100 nM, less than 40 µM and less than 40 µM.
For `NC(=O)c1cc2c(-c3ccc(Oc4ccccc4)cc3)cncc2s1`, in data set [1] (setting [5]), the IC50 is 100 to 500 nM. The CC50 at 48 h in data set [2] was less than 40 µM.
With `NC(=O)c1sc2cncc(N3CCOCC3)c2c1N`, the CC50 at 48 h in data set [2] was less than 40 µM.
Still for that read-out and setting: as for `NC(=O)c1cccc(-c2cncc3sc(C(N)=O)c(N)c23)c1`, the figure is less than 40 µM.
Still for that read-out and setting: as for `CN(Cc1cccs1)c1cncc2sc(C(N)=O)c(N)c12`, the figure is less than 40 µM; as for `Cc1cccc(N2CCN(c3cncc4sc(C(N)=O)c(N)c34)CC2)n1`, less than 40 µM.
In the case of `COc1cc(C(=O)N2CCN(c3cncc4sc(C(N)=O)c(N)c34)CC2)ccc1C`, in data set [2], the CC50 at 48 h was less than 40 µM.
As to `NC(=O)c1sc2cncc(-c3cccc4cccnc34)c2c1N`, the CC50 at 48 h in data set [2] was greater than 40 µM.
`NC(=O)c1sc2cncc(Cl)c2c1N`: the CC50 at 48 h in data set [2] is less than 40 µM.
On to `NC(=O)c1sc2cncc(N3CCCC3)c2c1N`, for which the IC50 in data set [1] (setting [5]) was in the range of 100 to 500 nM. In data set [3] (Table 5), the CC50 at 3 days is greater than 40 µM.
`NC(=O)c1sc2cncc(-c3ccccc3)c2c1N`: the IC50 in data set [1] (setting [5]) lay in the range of 100 to 500 nM. The CC50 at 3 days in data set [3] (Table 5) was greater than 40 µM.
With `NC(=O)c1sc2nc(-c3cccnc3)ccc2c1N`, in data set [4], the “Tat hybrid cell viability at 50,000 nM” value was “X (X = >60%)”. The concentration for a half-maximal effect (EC50) at 48 h in data set [2] was less than 40 µM.
The matching figures for `COC(=O)c1sc2nc(C)cc(C)c2c1N`: “X (X = >60%)” and greater than 40 µM.
For `Cc1nc2sc(C(N)=O)c(N)c2c(C)c1C` the same measures were “X (X = >60%)” and greater than 40 µM.
For `Cc1cc(C(F)F)nc2sc(C(N)=O)c(N)c12`, in data set [4], the “Tat hybrid cell viability at 50,000 nM” value is “X (X = >60%)”. Moreover, the concentration giving a half-maximal response (EC50) at 48 h in data set [2] is greater than 40 µM.
On to `Cc1cc(C(F)(F)F)nc2sc(C(N)=O)c(N)c12`, for which the “Tat hybrid cell viability at 50,000 nM” value in data set [4] was “Y (Y = 30-60%)”. In data set [2], the EC50 at 48 h was greater than 40 µM.
For `CC(C)c1ccc2nc3sc(C(N)=O)c(N)c3cc2c1` the same measures were “X (X = >60%)” and less than 40 µM.
The matching figures for `COc1ccc(-c2cc(C3CC3)nc3sc(C(N)=O)c(N)c23)cc1`: “X (X = >60%)” and greater than 40 µM.
`Cc1ccc(-c2c3c(nc4sc(C(N)=O)c(N)c24)CCC3)cc1`: in data set [1] (Human immunodeficiency virus 1, Table 6, read-out: U1 IC50), the IC50 is greater than 500 nM. The “Tat hybrid cell viability at 50,000 nM” value in data set [4] is “X (X = >60%)”. For the same compound, in data set [3] (Table 6), the CC50 at 3 days is less than 40 µM.
Consider `Cc1ccnc2sc(C(N)=O)c(N)c12`, for which the “Tat hybrid cell viability at 50,000 nM” value in data set [4] was “X (X = >60%)”. The same compound returned an EC50 at 48 h in data set [2] of less than 40 µM.
For `Cc1cc(C)c2c(N)c(C(=O)O)sc2n1` the same measures were “X (X = >60%)” and greater than 40 µM.
For `NC(=O)c1sc2ncccc2c1N` the same measures were “Y (Y = 30-60%)” and greater than 40 µM.
For the compound `CC(=O)c1sc2nc(C)cc(C)c2c1N`, the “Tat hybrid cell viability at 50,000 nM” value in data set [4] is listed as “Y (Y = 30-60%)”. The same compound came in with an EC50 at 48 h in data set [2] greater than 40 µM.
For `COC(=O)c1sc2nccc(N(C)C)c2c1N` the same measures were “X (X = >60%)” and less than 40 µM.
For `CN(C)C(=O)c1sc2ncccc2c1N` the same measures were “X (X = >60%)” and less than 40 µM.
Regarding `CN(C)c1ccnc2sc(C(N)=O)c(N)c12` [Compound 1f, 3-amino-4-(dimethylamino)thieno[2,3-b]pyridine-2-carboxamide], the IC50 in data set [1] (setting [6]) is greater than 500 nM.
The same measure, in the same setting: to `NC(=O)c1sc2cncc(N3CCC(C(N)=O)CC3)c2c1N` [Compound 2c, 1-{3-amino-2-carbamoylthieno[2,3-c]pyridin-4-yl}piperidine-4-carboxamide] belongs 100 to 500 nM; to `NC(=O)c1sc2cncc(N3CCC4(CC3)OCCO4)c2c1N` [Compound 2g, 3-amino-4-{1,4-dioxa-8-azaspiro[4.5]decan-8-yl}thieno[2,3-c]pyridine-2-carboxamide], 100 to 500 nM.
Same read-out and setting: to `NC(=O)c1sc2cncc(N3CCC(F)(F)CC3)c2c1N` [Compound 2h, 3-amino-4-(4,4-difluoropiperidin-1-yl)thieno[2,3-c]pyridine-2-carboxamide] belongs 100 to 500 nM; to `NC(=O)c1sc2nccc(N3CCc4ccccc4C3)c2c1N` [Compound 2i, 3-amino-4-(1,2,3,4-tetrahydroisoquinolin-2-yl)thieno[2,3-b]pyridine-2-carboxamide], less than 100 nM; to `NC(=O)c1sc2cncc(N3CCC(Oc4ccccc4)CC3)c2c1N` [Compound 2j, 3-amino-4-(4-phenoxypiperidin-1-yl)thieno[2,3-c]pyridine-2-carboxamide], less than 100 nM.
Same read-out and setting: as for `Cc1noc(C2CCCN(c3cncc4sc(C(N)=O)c(N)c34)C2)n1` (stereo not shown) [Compound 2k, 3-amino-4-[3-(3-methyl-1,2,4-oxadiazol-5-yl)piperidin-1-yl]thieno[2,3-c]pyridine-2-carboxamide], the figure is greater than 500 nM.
Regarding `COc1ccc(-c2cncc3sc(C(N)=O)c(N)c23)cc1` [Compound 3a, 3-amino-4-(4-methoxyphenyl)thieno[2,3-c]pyridine-2-carboxamide], the IC50 in data set [1] (setting [7]) was less than 100 nM.
Same read-out and setting: as for `NC(=O)c1sc2cncc(-c3ccc4c(c3)CCO4)c2c1N` [Compound 3e, 3-amino-4-(2,3-dihydro-1-benzofuran-5-yl)thieno[2,3-c]pyridine-2-carboxamide], the figure is less than 100 nM; as for `NC(=O)c1sc2cncc(-c3ccc4c(c3)OCO4)c2c1N` [Compound 3f, 3-amino-4-(2H-1,3-benzodioxol-5-yl)thieno[2,3-c]pyridine-2-carboxamide], 100 to 500 nM.
On to `N#Cc1ccc(-c2cncc3sc(C(N)=O)cc23)cc1F` [Compound 4c, 4-(4-cyano-3-fluorophenyl)thieno[2,3-c]pyridine-2-carboxamide], for which, in data set [1] (setting [7]), the IC50 lay in the range of 100 to 500 nM.
The same measure, in the same setting: to `N#Cc1ccccc1-c1cncc2sc(C(N)=O)cc12` [Compound 4d, 4-(2-cyanophenyl)thieno[2,3-c]pyridine-2-carboxamide] belongs greater than 500 nM; to `NC(=O)c1cc2c(-c3ccc4c(c3)OCO4)cncc2s1` [Compound 4f, 4-(2H-1,3-benzodioxol-5-yl)thieno[2,3-c]pyridine-2-carboxamide], less than 100 nM.
Same read-out and setting: to `NC(=O)c1cc2c(-c3cccc(-c4ccccc4)c3)cncc2s1` [Compound 4j, 4-(3-phenylphenyl)thieno[2,3-c]pyridine-2-carboxamide] belongs 100 to 500 nM.
Regarding `N#Cc1ccc(-c2cncc3sc(C(N)=O)cc23)cc1F` [drawing 143], the 50% inhibitory concentration (IC50) in data set [1] (setting [5]) lay within 100 to 500 nM. The CC50 at 48 h in data set [2] was greater than 40 µM.
